Results taken from patent publication US12543736B2, “Herbicidal compositions comprising mesotrione” (BASF SE, priority 2024, dated 2026).

What was measured:
Type in all cases: in vivo
[1] = test system: Avena fatua; test: Example 2 post-emergence greenhouse trial, AVEFA
Procedure: In the examples below, using the method of S. R. Colby (1967) “Calculating synergistic and antagonistic responses of herbicide combinations”, Weeds 15, p. 22ff., the value E, which is expected if the activity of the individual active compounds is only additive, was calculated: [formula] • where • X=percent activity using active herbicide A at an application rate a; • Y=percent activity using active herbicide B (e.g. mesotrione) at an application rate b; • E=expected activity (in %) by A+B at application rates a+b. If the value found experimentally is higher than the value E calculated according to Colby, a synergistic effect is present. The culture containers used were plastic pots containing loamy sand with approximately 3.0% of humus as substrate. The seeds of the test plants were sown separately for each species. For the post-emergence treatment, the test plants were grown to a plant height of from 3 to 15 cm, depending on the plant habit, and only then treated with the active compounds which had been suspended or emulsified in water. To this end, the test plants were either sown directly, and grown in the same containers, or they were first grown separately as seedlings and transplanted into the test containers a few days prior to treatment. Depending on the species, the plants were kept at 10-25° C. and 20-35° C., respectively. The test period extended over 2 to 4 weeks. During this time, the plants were tended and their response to the individual treatments was evaluated. Evaluation was carried out using a scale from 0 to 100. 100 means no emergence of the plants, or complete destruction of at least the above-ground parts, and 0 means no damage or normal course of growth. A good herbicidal activity is given at values of at least 70, and very good herbicidal activity is given at values of at least 85. Post-Emergence Application of Herbicide A-1 (A-1) and Mesotrione (B) in Greenhouse Trials Herbicide A-1 (342 g/l) and mesotrione (480 g/l) were, together with addition of 0.5 v/v % MSO (methylated sed oil) as adjuvant, formulated in water as distribution medium (water volume 200 l/ha) and sprayed with commercial flat fan nozzles.

[2] = test system: Digitaria sanguinalis; test: Example 3 post-emergence field trial, DIGSA; conditions: height 10-15 cm; for % herbicidal activity A-1 / % herbicidal activity B: 42 DAT
Procedure: In the examples below, using the method of S. R. Colby (1967) “Calculating synergistic and antagonistic responses of herbicide combinations”, Weeds 15, p. 22ff., the value E, which is expected if the activity of the individual active compounds is only additive, was calculated: [formula] • where • X=percent activity using active herbicide A at an application rate a; • Y=percent activity using active herbicide B (e.g. mesotrione) at an application rate b; • E=expected activity (in %) by A+B at application rates a+b. If the value found experimentally is higher than the value E calculated according to Colby, a synergistic effect is present. Evaluation was carried out using a scale from 0 to 100. 100 means no emergence of the plants, or complete destruction of at least the above-ground parts, and 0 means no damage or normal course of growth. A good herbicidal activity is given at values of at least 70, and very good herbicidal activity is given at values of at least 85. Post-Emergence Application of Herbicide A-1 (A-1) and Mesotrione (B) in Field Trials Herbicide A-1 (342 g/l) and mesotrione (100 g/l) were, together with addition of 0.5 v/v % MSO (methylated sed oil) as adjuvant, formulated in water as distribution medium (water volume 200 l/ha) and sprayed with commercial flat fan nozzles.

[3] = test system: Zea mays; test: Example 4 post-emergence application A-1, B and C-19, ZEAMX; conditions: growth stage 12, 21 DAT, g ai/ha: A-1 2, B 50, C-19 30
Procedure: In the examples below, using the method of S. R. Colby (1967) “Calculating synergistic and antagonistic responses of herbicide combinations”, Weeds 15, p. 22ff., the value E, which is expected if the activity of the individual active compounds is only additive, was calculated:
[formula] • where • X=percent activity using active herbicide A at an application rate a; • Y=percent activity using active herbicide B (e.g. mesotrione) at an application rate b; • E=expected activity (in %) by A+B at application rates a+b.
If the value found experimentally is higher than the value E calculated according to Colby, a synergistic effect is present.
Evaluation was carried out using a scale from 0 to 100. 100 means no emergence of the plants, or complete destruction of at least the above-ground parts, and 0 means no damage or normal course of growth. A good herbicidal activity is given at values of at least 70, and very good herbicidal activity is given at values of at least 85.
Post-Emergence Application of Herbicide A-1 (A-1), Mesotrione (B) and Pyroxasulfone (C-19)
Herbicide A-1 (342 g/l), mesotrione (100 g/l) and pyroxasulfone (500 g/l) were, together with addition of 0.5 v/v % MSO (methylated sed oil) as adjuvant, formulated in water as distribution medium (water volume 200 l/ha) and sprayed with commercial flat fan nozzles.

[4] = growth stage 11, 7 DAT, g ai/ha: A-1 1, B 50
[5] = growth stage 11, 20 DAT, g ai/ha: A-1 1, B 50
[6] = growth stage 11, 20 DAT, g ai/ha: A-1 1, B 100
[7] = 7 DAT, g ai/ha: A-1 12.5, B 105
[8] = 21 DAT, g ai/ha: A-1 12.5, B 105

Row | SMILES | % herbicidal activity [1, 4] [%] | % herbicidal activity [1, 5] [%] | % herbicidal activity [1, 6] [%] | % herbicidal activity A-1 ([2]; A-1 12.5 g ai/ha) [%] | % herbicidal activity A-1 ([2]; A-1 18 g ai/ha) [%] | % herbicidal activity [2, 7] [%] | % herbicidal activity ([2]; 7 DAT, g ai/ha: A-1 18, B 105) [%] | % herbicidal activity [2, 8] [%] | % herbicidal activity ([2]; 21 DAT, g ai/ha: A-1 18, B 105) [%] | % herbicidal activity [3] [%] | % herbicidal activity B ([2]; B 105 g ai/ha) [%] | % herbicidal activity B ([2]; B 210 g ai/ha) [%]
1 | CCOC(=O)COc1ccccc1Oc1nc(-n2c(=O)cc(C(F)(F)F)n(C)c2=O)c(F)cc1Cl [A-1, ethyl 2-[2-[[3-chloro-5-fluoro-6-[3-methyl-2,6-dioxo-4-(trifluoromethyl)pyrimidin-1-yl]-2-pyridyl]oxy]phenoxy]acetate] | 70 | 35 | 35 | 65 | 70 | 80 | 80 | 70 | 80 | 40 |  | 
2 | CS(=O)(=O)c1ccc(C(=O)C2C(=O)CCCC2=O)c([N+](=O)[O-])c1 [B, mesotrione] | 15 | 15 | 15 |  |  | 50 | 50 | 65 | 65 | 0 | 55 | 70
